# Where two headings read alike, the source gives them in different places.
# Legend:
# CDK19/Cyclin C = CDK19/Cyclin C (Homo sapiens, UniProt Q9BWU1); assay: NanoBRET live-cell target engagement, NanoLuc-CDK19/Cyclin C in HEK-293; conditions: 10µM
# CDK12/Cyclin K = CDK12/Cyclin K (Homo sapiens, UniProt Q9NYV4); assay: NanoBRET live-cell target engagement, CDK12-NanoLuc/Cyclin K in HEK-293; type: binding; conditions: CDK12/K, 10µM
# CDK11B/Cyclin L2 = CDK11B/Cyclin L2 (Homo sapiens, UniProt P21127); assay: NanoBRET live-cell target engagement, CDK11B-NanoLuc/Cyclin L2 in HEK-293; type: binding; conditions: CDK11b/L2, 10µM
# CDK5/CDK5R1 = CDK5/CDK5R1 (Homo sapiens, UniProt Q00535); assay: NanoBRET live-cell target engagement, CDK5-NanoLuc/CDK5R1 in HEK-293; type: binding; conditions: CDK5/CDK5R1, 10µM
# Chain of CDK5/CDK5R1 (Q00535 whole entry): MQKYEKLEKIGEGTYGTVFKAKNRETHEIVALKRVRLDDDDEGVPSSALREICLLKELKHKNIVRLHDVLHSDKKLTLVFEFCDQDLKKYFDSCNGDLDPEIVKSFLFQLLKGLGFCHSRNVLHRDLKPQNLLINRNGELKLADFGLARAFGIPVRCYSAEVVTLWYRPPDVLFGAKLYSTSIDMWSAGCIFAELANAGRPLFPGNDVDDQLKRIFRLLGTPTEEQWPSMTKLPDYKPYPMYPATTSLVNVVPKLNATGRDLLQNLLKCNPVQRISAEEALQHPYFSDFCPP
# Chain of CDK5/CDK5R1 (Q15078 whole entry partner): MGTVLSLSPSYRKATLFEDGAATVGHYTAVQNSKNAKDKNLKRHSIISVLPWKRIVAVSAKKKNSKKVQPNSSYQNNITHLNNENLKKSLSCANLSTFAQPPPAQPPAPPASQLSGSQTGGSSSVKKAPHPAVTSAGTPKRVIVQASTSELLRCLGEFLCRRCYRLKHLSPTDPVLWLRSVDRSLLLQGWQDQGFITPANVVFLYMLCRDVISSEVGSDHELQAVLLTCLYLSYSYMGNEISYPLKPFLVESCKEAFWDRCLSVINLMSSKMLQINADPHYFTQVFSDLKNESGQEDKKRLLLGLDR
# CDK17/Cyclin Y = CDK17/Cyclin Y (Homo sapiens, UniProt Q00537); assay: NanoBRET live-cell target engagement, CDK17-NanoLuc/Cyclin Y in HEK-293; type: binding; conditions: CDK17/Y, 10µM
# CDK13/Cyclin K = CDK13/Cyclin K (Homo sapiens, UniProt Q14004); assay: NanoBRET live-cell target engagement, CDK13-NanoLuc/Cyclin K in HEK-293; type: binding; conditions: CDK13/K, 10µM
# CDK15/Cyclin Y = CDK15/Cyclin Y (Homo sapiens, UniProt Q96Q40); assay: NanoBRET live-cell target engagement, NanoLuc-CDK15/Cyclin Y in HEK-293; type: binding; conditions: CDK15/Y, 10µM
# Chain of CDK15/Cyclin Y (Q96Q40 whole entry): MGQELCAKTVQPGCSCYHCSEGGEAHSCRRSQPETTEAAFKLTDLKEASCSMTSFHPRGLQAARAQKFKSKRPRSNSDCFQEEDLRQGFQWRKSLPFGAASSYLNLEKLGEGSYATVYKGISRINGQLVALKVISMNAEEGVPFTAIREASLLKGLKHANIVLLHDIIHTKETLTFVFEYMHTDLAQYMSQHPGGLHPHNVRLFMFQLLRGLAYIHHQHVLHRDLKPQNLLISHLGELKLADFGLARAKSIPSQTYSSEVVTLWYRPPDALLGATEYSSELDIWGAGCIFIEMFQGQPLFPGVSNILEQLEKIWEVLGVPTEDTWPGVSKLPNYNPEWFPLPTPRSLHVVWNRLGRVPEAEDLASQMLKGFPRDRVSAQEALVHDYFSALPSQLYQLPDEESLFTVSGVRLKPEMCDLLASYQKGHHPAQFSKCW
# Chain of CDK15/Cyclin Y (Q8ND76 whole entry partner): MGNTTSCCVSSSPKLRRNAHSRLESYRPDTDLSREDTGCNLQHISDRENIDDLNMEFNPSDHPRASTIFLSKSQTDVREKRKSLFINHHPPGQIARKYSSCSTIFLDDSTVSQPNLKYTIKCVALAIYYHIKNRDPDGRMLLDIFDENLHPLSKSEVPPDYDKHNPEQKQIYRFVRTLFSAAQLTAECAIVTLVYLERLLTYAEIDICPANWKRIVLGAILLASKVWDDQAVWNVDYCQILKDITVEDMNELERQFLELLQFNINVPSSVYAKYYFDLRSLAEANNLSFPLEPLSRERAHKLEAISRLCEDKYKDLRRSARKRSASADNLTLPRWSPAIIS
# CDK18/Cyclin Y = CDK18/Cyclin Y (Homo sapiens, UniProt Q07002); assay: NanoBRET live-cell target engagement, CDK18-NanoLuc/Cyclin Y in HEK-293; type: binding; conditions: CDK18/Y, 10µM
# Chain of CDK18/Cyclin Y (Q07002 whole entry): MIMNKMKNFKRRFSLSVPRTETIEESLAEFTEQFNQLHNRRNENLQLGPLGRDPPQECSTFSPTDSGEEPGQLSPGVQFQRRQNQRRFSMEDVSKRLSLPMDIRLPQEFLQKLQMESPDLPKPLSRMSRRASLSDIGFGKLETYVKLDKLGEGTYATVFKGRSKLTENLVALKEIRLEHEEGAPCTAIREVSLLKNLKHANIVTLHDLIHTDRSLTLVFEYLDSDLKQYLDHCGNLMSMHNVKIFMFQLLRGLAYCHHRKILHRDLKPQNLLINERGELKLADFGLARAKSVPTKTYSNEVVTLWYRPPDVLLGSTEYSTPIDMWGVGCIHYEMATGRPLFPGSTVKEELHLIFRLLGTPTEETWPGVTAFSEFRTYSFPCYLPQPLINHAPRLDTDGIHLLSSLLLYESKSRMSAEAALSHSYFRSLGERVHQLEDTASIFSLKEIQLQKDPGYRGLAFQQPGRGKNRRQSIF
# Chain of CDK18/Cyclin Y (Q8ND76 whole entry partner): as the sequence (Q8ND76 whole entry partner) above
# CDK20/Cyclin H = CDK20/Cyclin H (Homo sapiens, UniProt Q8IZL9); assay: NanoBRET live-cell target engagement, NanoLuc-CDK20/Cyclin H in HEK-293; type: binding; conditions: CDK20/H, 10µM
# CDK16/Cyclin Y = CDK16/Cyclin Y (Homo sapiens, UniProt Q00536); assay: NanoBRET live-cell target engagement, CDK16-NanoLuc/Cyclin Y in HEK-293; type: binding; conditions: CDK16/Y, 10µM
# CDK7 = CDK7 (Homo sapiens, UniProt P50613); assay: NanoBRET live-cell target engagement, NanoLuc-CDK7 in HEK-293; type: binding; conditions: CDK7, 10µM
# Chain of CDK7 (P50613 whole entry): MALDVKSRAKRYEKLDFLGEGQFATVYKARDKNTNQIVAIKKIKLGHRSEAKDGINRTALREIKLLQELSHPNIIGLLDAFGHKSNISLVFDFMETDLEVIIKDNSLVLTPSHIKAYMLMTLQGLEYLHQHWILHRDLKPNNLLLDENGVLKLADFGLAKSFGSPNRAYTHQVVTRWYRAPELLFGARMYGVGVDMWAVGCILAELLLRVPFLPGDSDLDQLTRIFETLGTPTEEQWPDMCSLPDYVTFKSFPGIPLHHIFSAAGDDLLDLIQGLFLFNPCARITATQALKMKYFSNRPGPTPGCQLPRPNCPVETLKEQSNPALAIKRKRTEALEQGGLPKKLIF
# CDK14/Cyclin Y = CDK14/Cyclin Y (Homo sapiens, UniProt O94921); assay: NanoBRET live-cell target engagement, CDK14-NanoLuc/Cyclin Y in HEK-293; type: binding; conditions: CDK14/Y, 10µM
# Chain of CDK14/Cyclin Y (O94921 whole entry): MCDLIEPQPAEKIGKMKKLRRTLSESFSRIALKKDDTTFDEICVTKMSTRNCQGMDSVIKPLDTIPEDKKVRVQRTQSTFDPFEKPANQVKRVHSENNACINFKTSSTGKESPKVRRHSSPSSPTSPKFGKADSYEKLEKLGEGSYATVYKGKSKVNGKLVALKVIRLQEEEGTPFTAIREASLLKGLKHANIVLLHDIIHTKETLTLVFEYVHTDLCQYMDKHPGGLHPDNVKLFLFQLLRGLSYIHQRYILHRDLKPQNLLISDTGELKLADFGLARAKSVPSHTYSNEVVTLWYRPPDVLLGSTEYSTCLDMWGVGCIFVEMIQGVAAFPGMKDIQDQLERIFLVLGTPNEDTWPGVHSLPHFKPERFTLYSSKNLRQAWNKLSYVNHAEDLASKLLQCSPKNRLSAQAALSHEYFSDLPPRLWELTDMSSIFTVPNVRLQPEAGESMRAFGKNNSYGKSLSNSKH
# Chain of CDK14/Cyclin Y (Q8ND76 whole entry partner): as the sequence (Q8ND76 whole entry partner) above
# CDK1/Cyclin E1 = CDK1/Cyclin E1 (Homo sapiens, UniProt P06493); assay: NanoBRET live-cell target engagement, CDK1-NanoLuc/Cyclin E1 in HEK-293; type: binding; conditions: CDK1/E1, 10µM
# CDK11A/Cyclin L2 = biological target: T1, CDK11A/Cyclin L2 (Homo sapiens, UniProt Q9UQ88); assay: NanoBRET live-cell target engagement, CDK11A-NanoLuc/Cyclin L2 in HEK-293; type: binding; conditions: CDK11a/L2, 10µM
# T1 sequence (Q9UQ88 1-783): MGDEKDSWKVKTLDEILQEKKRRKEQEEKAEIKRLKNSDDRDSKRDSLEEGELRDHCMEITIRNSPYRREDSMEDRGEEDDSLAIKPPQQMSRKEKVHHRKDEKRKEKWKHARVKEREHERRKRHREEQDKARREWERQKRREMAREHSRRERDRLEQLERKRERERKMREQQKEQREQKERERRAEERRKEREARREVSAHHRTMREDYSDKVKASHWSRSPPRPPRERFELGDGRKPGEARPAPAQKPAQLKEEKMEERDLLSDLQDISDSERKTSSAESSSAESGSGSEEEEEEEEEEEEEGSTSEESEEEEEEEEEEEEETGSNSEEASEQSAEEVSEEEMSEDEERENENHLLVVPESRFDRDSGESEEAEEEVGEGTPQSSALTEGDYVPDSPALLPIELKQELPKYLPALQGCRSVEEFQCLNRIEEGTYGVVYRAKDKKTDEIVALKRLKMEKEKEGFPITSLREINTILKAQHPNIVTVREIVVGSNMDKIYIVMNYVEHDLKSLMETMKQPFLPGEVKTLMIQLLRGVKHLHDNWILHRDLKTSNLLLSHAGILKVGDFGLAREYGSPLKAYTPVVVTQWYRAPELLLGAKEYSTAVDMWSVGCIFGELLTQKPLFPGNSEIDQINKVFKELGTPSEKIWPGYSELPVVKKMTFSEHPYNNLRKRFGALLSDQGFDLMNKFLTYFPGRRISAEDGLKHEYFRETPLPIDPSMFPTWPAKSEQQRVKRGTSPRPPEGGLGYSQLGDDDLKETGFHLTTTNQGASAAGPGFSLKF
# CDK10/Cyclin L2 = CDK10/Cyclin L2 (Homo sapiens, UniProt Q15131); assay: NanoBRET live-cell target engagement, CDK10-NanoLuc/Cyclin L2 in HEK-293; conditions: 10µM
# Chain of CDK10/Cyclin L2 (Q15131 whole entry): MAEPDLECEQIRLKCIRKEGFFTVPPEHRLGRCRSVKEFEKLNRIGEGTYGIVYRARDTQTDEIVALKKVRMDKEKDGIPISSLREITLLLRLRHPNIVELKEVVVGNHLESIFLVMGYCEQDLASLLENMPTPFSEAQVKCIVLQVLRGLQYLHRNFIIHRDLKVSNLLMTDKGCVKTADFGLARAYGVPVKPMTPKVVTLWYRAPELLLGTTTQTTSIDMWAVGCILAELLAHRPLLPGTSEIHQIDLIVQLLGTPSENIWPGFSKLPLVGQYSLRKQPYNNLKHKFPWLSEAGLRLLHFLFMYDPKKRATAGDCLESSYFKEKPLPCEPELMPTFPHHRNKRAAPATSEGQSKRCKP
# CDK9/Cyclin K = CDK9/Cyclin K (Homo sapiens, UniProt P50750); assay: NanoBRET live-cell target engagement, NanoLuc-CDK9/Cyclin K in HEK-293; type: binding; conditions: for inhibition at 10 µM: CDK9/K
# Chain of CDK9/Cyclin K (P50750 whole entry): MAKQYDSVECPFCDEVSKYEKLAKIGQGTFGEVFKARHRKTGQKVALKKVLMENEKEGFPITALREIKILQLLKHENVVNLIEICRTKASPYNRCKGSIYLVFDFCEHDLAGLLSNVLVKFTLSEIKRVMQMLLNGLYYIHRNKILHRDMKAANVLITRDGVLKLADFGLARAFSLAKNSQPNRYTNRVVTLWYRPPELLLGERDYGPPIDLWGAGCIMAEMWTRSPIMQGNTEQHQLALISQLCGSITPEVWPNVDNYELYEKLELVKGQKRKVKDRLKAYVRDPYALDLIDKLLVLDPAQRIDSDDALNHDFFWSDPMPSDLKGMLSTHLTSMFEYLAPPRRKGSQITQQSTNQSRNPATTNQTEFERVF
# Chain of CDK9/Cyclin K (O75909 whole entry partner): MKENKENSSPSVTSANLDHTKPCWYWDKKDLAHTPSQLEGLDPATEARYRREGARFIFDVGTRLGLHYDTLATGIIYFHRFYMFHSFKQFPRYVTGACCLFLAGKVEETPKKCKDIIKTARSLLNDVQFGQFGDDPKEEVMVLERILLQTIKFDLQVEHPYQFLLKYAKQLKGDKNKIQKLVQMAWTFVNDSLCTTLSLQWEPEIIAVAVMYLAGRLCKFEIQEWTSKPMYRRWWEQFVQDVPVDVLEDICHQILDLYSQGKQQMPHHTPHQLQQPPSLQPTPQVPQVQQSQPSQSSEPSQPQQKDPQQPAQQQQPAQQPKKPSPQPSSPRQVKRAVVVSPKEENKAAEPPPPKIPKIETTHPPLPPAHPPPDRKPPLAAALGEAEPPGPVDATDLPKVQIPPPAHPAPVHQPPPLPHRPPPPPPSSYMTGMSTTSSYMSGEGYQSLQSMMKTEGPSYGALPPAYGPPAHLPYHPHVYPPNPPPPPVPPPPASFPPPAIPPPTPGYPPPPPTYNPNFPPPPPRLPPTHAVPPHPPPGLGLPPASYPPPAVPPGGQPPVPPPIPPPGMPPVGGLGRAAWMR
# CDK4/Cyclin D1 = CDK4/Cyclin D1 (Homo sapiens, UniProt P11802); assay: NanoBRET live-cell target engagement, NanoLuc-CDK4/Cyclin D1 in HEK-293; type: binding; conditions: CDK4/D1, 10µM
# CDK6/Cyclin D1 = CDK6/Cyclin D1 (Homo sapiens, UniProt Q00534); assay: NanoBRET live-cell target engagement, NanoLuc-CDK6/Cyclin D1 in HEK-293; type: binding; conditions: CDK6/D1, 10µM
# CDK8/Cyclin C = CDK8/Cyclin C (Homo sapiens, UniProt P49336); assay: NanoBRET live-cell target engagement, NanoLuc-CDK8/Cyclin C in HEK-293; type: binding; conditions: CDK8/C, 10µM
# Chain of CDK8/Cyclin C (P49336 whole entry): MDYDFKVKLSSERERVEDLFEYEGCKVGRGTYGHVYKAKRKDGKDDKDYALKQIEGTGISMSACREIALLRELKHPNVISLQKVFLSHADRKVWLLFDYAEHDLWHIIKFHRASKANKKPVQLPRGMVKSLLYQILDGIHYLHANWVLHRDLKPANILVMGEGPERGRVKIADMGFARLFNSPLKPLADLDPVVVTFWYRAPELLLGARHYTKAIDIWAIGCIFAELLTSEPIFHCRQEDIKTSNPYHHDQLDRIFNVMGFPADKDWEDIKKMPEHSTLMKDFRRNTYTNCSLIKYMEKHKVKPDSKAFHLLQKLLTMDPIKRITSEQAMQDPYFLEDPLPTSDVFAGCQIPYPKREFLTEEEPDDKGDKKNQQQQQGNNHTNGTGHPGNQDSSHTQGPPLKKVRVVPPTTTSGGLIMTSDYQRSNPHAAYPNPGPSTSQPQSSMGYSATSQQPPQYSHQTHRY
# Chain of CDK8/Cyclin C (P24863 whole entry partner): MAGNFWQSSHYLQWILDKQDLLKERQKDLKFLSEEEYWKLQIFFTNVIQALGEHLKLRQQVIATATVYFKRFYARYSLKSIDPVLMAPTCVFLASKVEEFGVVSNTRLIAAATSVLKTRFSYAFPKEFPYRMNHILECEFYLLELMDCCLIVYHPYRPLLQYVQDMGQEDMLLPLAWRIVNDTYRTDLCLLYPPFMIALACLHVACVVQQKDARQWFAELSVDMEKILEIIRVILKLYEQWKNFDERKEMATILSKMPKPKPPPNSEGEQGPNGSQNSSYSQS
# [1] = average of replicates, read-out: Inhibition at 10µM (%) Average
# [2] = read-out: Inhibition at 10µM (%) Replicate 1
# [3] = read-out: Inhibition at 10µM (%) Replicate 2
smiles,measurement,setting,value
COc1cc(F)ccc1-c1cc(Nc2cc(CS(C)(=N)=O)ccn2)ncc1F (stereo not drawn) [BAY-1251152],inhibition at 10 µM,"CDK19/Cyclin C; read-out: Inhibition at 10µM (%) Average, CDK19/C, average of replicates",21.3%
same,inhibition at 10 µM,"CDK19/Cyclin C; read-out: Inhibition at 10µM (%) Replicate 1, CDK19/C",28.8%
same,inhibition at 10 µM,"CDK19/Cyclin C; read-out: Inhibition at 10µM (%) Replicate 2, CDK19/C",13.7%
same,inhibition at 10 µM,CDK12/Cyclin K; [1],25.3%
same,inhibition at 10 µM,CDK12/Cyclin K; [2],33%
same,inhibition at 10 µM,CDK12/Cyclin K; [3],17.7%
same,inhibition at 10 µM,CDK11B/Cyclin L2; [1],33.9%
same,inhibition at 10 µM,CDK11B/Cyclin L2; [2],35.6%
same,inhibition at 10 µM,CDK11B/Cyclin L2; [3],32.1%
same,inhibition at 10 µM,CDK5/CDK5R1; [1],56.6%
same,inhibition at 10 µM,CDK5/CDK5R1; [2],44.9%
same,inhibition at 10 µM,CDK5/CDK5R1; [3],68.3%
same,inhibition at 10 µM,CDK17/Cyclin Y; [1],59.9%
same,inhibition at 10 µM,CDK17/Cyclin Y; [2],56.6%
same,inhibition at 10 µM,CDK17/Cyclin Y; [3],63.1%
same,inhibition at 10 µM,CDK13/Cyclin K; [1],23.2%
same,inhibition at 10 µM,CDK13/Cyclin K; [2],23.5%
same,inhibition at 10 µM,CDK13/Cyclin K; [3],22.8%
same,inhibition at 10 µM,CDK15/Cyclin Y; [1],40%
same,inhibition at 10 µM,CDK15/Cyclin Y; [2],31.9%
same,inhibition at 10 µM,CDK15/Cyclin Y; [3],48.2%
same,inhibition at 10 µM,CDK18/Cyclin Y; [1],46.2%
same,inhibition at 10 µM,CDK18/Cyclin Y; [2],38.7%
same,inhibition at 10 µM,CDK18/Cyclin Y; [3],53.8%
same,inhibition at 10 µM,CDK20/Cyclin H; [2],8.6%
same,inhibition at 10 µM,CDK20/Cyclin H; [3],8.9%
same,inhibition at 10 µM,CDK16/Cyclin Y; [2],62.8%
same,inhibition at 10 µM,CDK16/Cyclin Y; [3],66.7%
same,inhibition at 10 µM,CDK7; [1],58.7%
same,inhibition at 10 µM,CDK7; [2],59.8%
same,inhibition at 10 µM,CDK7; [3],57.6%
same,inhibition at 10 µM,CDK14/Cyclin Y; [1],19.5%
same,inhibition at 10 µM,CDK14/Cyclin Y; [2],16.7%
same,inhibition at 10 µM,CDK14/Cyclin Y; [3],22.4%
same,inhibition at 10 µM,CDK1/Cyclin E1; [1],56%
same,inhibition at 10 µM,CDK1/Cyclin E1; [2],55.2%
same,inhibition at 10 µM,CDK1/Cyclin E1; [3],56.8%
same,inhibition at 10 µM,CDK11A/Cyclin L2; [1],44%
same,inhibition at 10 µM,CDK11A/Cyclin L2; [2],39.5%
same,inhibition at 10 µM,CDK11A/Cyclin L2; [3],48.5%
same,inhibition at 10 µM,"CDK10/Cyclin L2; read-out: Inhibition at 10µM (%) Average, CDK10/L2, average of replicates",45%
same,inhibition at 10 µM,"CDK10/Cyclin L2; read-out: Inhibition at 10µM (%) Replicate 1, CDK10/L2",38.6%
same,inhibition at 10 µM,"CDK10/Cyclin L2; read-out: Inhibition at 10µM (%) Replicate 2, CDK10/L2",51.4%
same,inhibition at 10 µM,CDK9/Cyclin K; [1],99.8%
same,inhibition at 10 µM,CDK9/Cyclin K; [2],99.5%
same,inhibition at 10 µM,CDK9/Cyclin K; [3],100%
same,"CDK9 Occupancy Data, Plasmid",CDK9/Cyclin K; LOG10([BAY-1251152]) (LOG10(µM)) 0.045757,99.1453
same,"CDK9 Occupancy Data, Plasmid",CDK9/Cyclin K; LOG10([BAY-1251152]) (LOG10(µM)) 0.522879,96.1111
same,"CDK9 Occupancy Data, Plasmid",CDK9/Cyclin K; LOG10([BAY-1251152]) (LOG10(µM)) 1,96.4103
same,"CDK9 Occupancy Data, Plasmid",CDK9/Cyclin K; LOG10([BAY-1251152]) (LOG10(µM)) -0.43136,97.094
same,"CDK9 Occupancy Data, Plasmid",CDK9/Cyclin K; LOG10([BAY-1251152]) (LOG10(µM)) -0.90849,95.641
same,"CDK9 Occupancy Data, Plasmid",CDK9/Cyclin K; LOG10([BAY-1251152]) (LOG10(µM)) -1.38561,91.9658
same,"CDK9 Occupancy Data, Plasmid",CDK9/Cyclin K; LOG10([BAY-1251152]) (LOG10(µM)) -1.86273,87.906
same,"CDK9 Occupancy Data, Plasmid",CDK9/Cyclin K; LOG10([BAY-1251152]) (LOG10(µM)) -2.33985,67.9487
same,"CDK9 Occupancy Data, Plasmid",CDK9/Cyclin K; LOG10([BAY-1251152]) (LOG10(µM)) -2.81697,29.4872
same,"CDK9 Occupancy Data, Plasmid",CDK9/Cyclin K; LOG10([BAY-1251152]) (LOG10(µM)) -3.29409,6.838
same,"CDK9 Occupancy Data, Plasmid",CDK9/Cyclin K; LOG10([BAY-1251152]) (LOG10(µM)) -3.77121,1.421e-14
same,inhibition at 10 µM,CDK4/Cyclin D1; [1],79.7%
same,inhibition at 10 µM,CDK4/Cyclin D1; [2],75.9%
same,inhibition at 10 µM,CDK4/Cyclin D1; [3],83.4%
same,inhibition at 10 µM,CDK6/Cyclin D1; [1],86.3%
same,inhibition at 10 µM,CDK6/Cyclin D1; [2],83.5%
same,inhibition at 10 µM,CDK6/Cyclin D1; [3],89.1%
same,inhibition at 10 µM,CDK8/Cyclin C; [1],9.9%
same,inhibition at 10 µM,CDK8/Cyclin C; [2],13.9%
same,inhibition at 10 µM,CDK8/Cyclin C; [3],5.9%

# Reference: article PMC7265341, “Quantifying CDK inhibitor selectivity in live cells” (Nature Communications, 2020)
